Results taken from patent US9062072B2, “Inhibitors of HIF and angiogenesis” (Emory University, priority 2010, dated 2015).
Read-outs that look alike come from different tables or passages of the source.

Test system: HIF-1-mediated transcription
Experiment: HIF-1-mediated transcription under hypoxia, LN229-HRE-Lux luciferase reporter assay
Type: cell-based, human
Settings: 24 h, LN229-HRE-Lux cells, hypoxia (1% O2), 24 h, read-out: IC50
Description: The synthesized analogues were evaluated for their potential to inhibit HIF-1-mediated transcription under hypoxia (1% O2) using a human glioma cell line LN229-HRE-Lux, which stably expresses a hypoxia-responsive luciferase reporter gene (Table 1-9). […] The compounds were tested in single (n=1) or multiple (n>1) independent experiments each carried out in quadruplicate.
LN229-HRE-luciferase human glioblastoma cells were used to perform the assay. […] 48-well plates were seeded with 3.10^4 cells per well and incubated under normoxic conditions for 24 h. Cells were then pre-treated with different concentrations of KCN-1 or its analogues for 1 h and then transferred to hypoxic conditions. After 24 h, media was aspirated, cells were lysed and reporter activity was measured in the lysate using Luciferase Assay System (Promega, Madison, Wis.) with 20/20^n Luminometer (Promega).

| IC50 (Homo sapiens, Table 1) | IC50 (Homo sapiens, Table 2) | SMILES | further results |
| --- | --- | --- | --- |
| 3 µM |  | COc1ccc(NCc2ccc3c(c2)C=CC(C)(C)O3)cc1OC [Compound 2a, (3,4-Dimethoxy-phenyl)-(2,2-dimethyl-2H-chromen-6-ylmethyl)-amine] |  |
| > 25 µM |  | Cc1ccc(NCc2ccc3c(c2)C=CC(C)(C)O3)c(C)c1 [Compound 2c, (2,2-Dimethyl-2H-chromen-6-ylmethyl)-(2,4-dimethyl-phenyl)-amine] |  |
| > 25 µM |  | CC1(C)C=Cc2cc(CNc3ccc(C(=O)O)cc3)ccc2O1 [Compound 2d, 4-[(2,2-Dimethyl-2H-chromen-6-ylmethyl)-amino]-benzoic acid] |  |
| > 25 µM |  | CC1(C)C=Cc2cc(CNc3ccccc3Br)ccc2O1 [Compound 2e, (2-Bromo-phenyl)-(2,2-dimethyl-2H-chromen-6-ylmethyl)-amine] |  |
| > 25 µM |  | CC1(C)C=Cc2cc(CNc3ccccc3F)ccc2O1 [Compound 2f, (2,2-Dimethyl-2H-chromen-6-ylmethyl)-(2-fluoro-phenyl)-amine] |  |
| 5 µM |  | COc1ccc(N(C)Cc2ccc3c(c2)C=CC(C)(C)O3)cc1OC [Compound 3a, (3,4-Dimethoxy-phenyl)-(2,2-dimethyl-2H-chromen-6-ylmethyl)-methylamine] |  |
| 8.4 µM |  | CN(Cc1ccc2c(c1)C=CC(C)(C)O2)c1ccccn1 [Compound 3b, (2,2-Dimethyl-2H-chromen-6-ylmethyl)-methyl-pyridin-2-yl-amine] |  |
| 2.6 µM |  | Cc1ccc(N(C)Cc2ccc3c(c2)C=CC(C)(C)O3)c(C)c1 [Compound 3c, (2,2-Dimethyl-2H-chromen-6-ylmethyl)-(2,4-dimethyl-phenyl)-methyl-amine] | IC50 (Homo sapiens): 2.6 µM |
|  | 3.1 µM | COc1ccc(S(=O)(=O)N(Cc2ccc3c(c2)C=CC(C)(C)O3)C(C)C)cc1OC [Compound 5a, N-(2,2-Dimethyl-2H-chromen-6-ylmethyl)-N-isopropyl-3,4-dimethoxy-benzenesulfonamide] |  |
|  | 1.3 µM | C#CCN(Cc1ccc2c(c1)C=CC(C)(C)O2)S(=O)(=O)c1ccc(OC)c(OC)c1 [Compound 5b, N-(2,2-Dimethyl-2H-chromen-6-ylmethyl)-3,4-dimethoxy-N-prop-2-ynyl-benzenesulfonamide] | IC50 (Homo sapiens): 1.3 µM |
|  | 3.3 µM | CCCCN(Cc1ccc2c(c1)C=CC(C)(C)O2)S(=O)(=O)c1ccc(OC)c(OC)c1 [Compound 5c, N-Butyl-N-(2,2-dimethyl-2H-chromen-6-ylmethyl)-3,4-dimethoxy-benzenesulfonamide] | IC50 (Homo sapiens): 3.3 µM |
|  | 3.5 µM | COc1ccc(S(=O)(=O)N(Cc2ccc3c(c2)C=CC(C)(C)O3)C(C)(C)C)cc1OC [Compound 5d, N-tert-Butyl-N-(2,2-dimethyl-2H-chromen-6-ylmethyl)-3,4-dimethoxy-benzenesulfonamide] | IC50 (Homo sapiens): 3.5 µM |
|  | 3.4 µM | C=CCN(Cc1ccc2c(c1)C=CC(C)(C)O2)S(=O)(=O)c1ccc(OC)c(OC)c1 [Compound 5e, N-Allyl-N-(2,2-dimethyl-2H-chromen-6-ylmethyl)-3,4-dimethoxy-benzenesulfonamide] |  |
|  | 1.6 µM | COc1ccc(S(=O)(=O)N(CCC(C)C)Cc2ccc3c(c2)C=CC(C)(C)O3)cc1OC [Compound 5f, N-(2,2-Dimethyl-2H-chromen-6-ylmethyl)-3,4-dimethoxy-N-(3-methyl-butyl)-benzenesulfonamide] |  |
|  | 0.5 µM | COc1ccc(S(=O)(=O)N(Cc2ccc3c(c2)C=CC(C)(C)O3)C2CCCC2)cc1OC [Compound 5g, N-Cyclopentyl-N-(2,2-dimethyl-2H-chromen-6-ylmethyl)-3,4-dimethoxy-benzenesulfonamide] | IC50 (Homo sapiens): 1.6 µM |
|  |  | COc1ccc(S(=O)(=O)N(Cc2ccc3c(c2)C=CC(C)(C)O3)C2CC2)cc1OC [Compound 5h, Cyclopropyl-N-(2,2-dimethyl-2H-chromen-6-ylmethyl)-3,4-dimethoxy-benzenesulfonamide] | IC50 (Table 2): 1.5 µM |
|  | 4 µM | COc1ccc(S(=O)(=O)N(Cc2ccc3c(c2)C=CC(C)(C)O3)C2CCCCC2)cc1OC [Compound 5i, N-Cyclohexyl-N-(2,2-dimethyl-2H-chromen-6-ylmethyl)-3,4-dimethoxy-benzenesulfonamide] |  |
